Results as given in patent US9029359B2, “Heteroaryl Btk inhibitors” (Biogen Idec MA, Inc., priority 2009, dated 2015).

What follows are compounds tested against T1, BTK (Homo sapiens, UniProt Q06187) (assay: In vitro BTK kinase assay: BTK-POLYGAT-LS ASSAY). Conditions: ATP 10 uM.
T1 construct: purchased Upstate 14-552
Type: biochemical
How it was run: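 BTK phosphorylation of polyGAT (100 nM final) with ATP at 10 μM final, 10 mM Tris-HCl pH 7.5 kinase buffer, quenched by EDTA after 30 min. Potency given as IC50.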

T1 sequence (Q06187 whole entry): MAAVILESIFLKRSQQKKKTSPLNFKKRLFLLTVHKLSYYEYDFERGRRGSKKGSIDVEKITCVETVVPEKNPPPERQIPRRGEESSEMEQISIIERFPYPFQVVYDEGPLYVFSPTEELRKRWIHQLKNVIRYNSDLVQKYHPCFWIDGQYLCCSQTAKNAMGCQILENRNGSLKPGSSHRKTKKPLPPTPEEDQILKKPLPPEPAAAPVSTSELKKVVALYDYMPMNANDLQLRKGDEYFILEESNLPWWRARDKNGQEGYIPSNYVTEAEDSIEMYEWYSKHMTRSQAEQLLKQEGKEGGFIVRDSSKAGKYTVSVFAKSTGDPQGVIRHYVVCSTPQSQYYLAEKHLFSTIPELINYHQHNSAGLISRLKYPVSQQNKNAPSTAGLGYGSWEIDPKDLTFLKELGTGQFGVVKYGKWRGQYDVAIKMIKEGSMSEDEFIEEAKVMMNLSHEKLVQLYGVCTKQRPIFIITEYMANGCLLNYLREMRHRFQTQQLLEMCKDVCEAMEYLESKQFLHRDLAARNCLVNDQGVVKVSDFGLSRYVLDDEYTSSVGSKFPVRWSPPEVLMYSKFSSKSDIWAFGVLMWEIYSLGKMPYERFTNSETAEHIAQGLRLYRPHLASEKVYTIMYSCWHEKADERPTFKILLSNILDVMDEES

| IC50 [nM] | SMILES |
| --- | --- |
| < 100 | O=C(N[C@@H]1CCCN(c2ncnc3[nH]ccc23)C1)[C@H](Nc1cc(F)cc(F)c1)C1CC1 [Example 120, (R)—N—((R)-1-(7H-pyrrolo[2,3-d]pyrimidin-4-yl)piperidin-3-yl)-2-cyclopropyl-2-(3,5-difluorophenylamino)acetamide] |
| < 100 | O=C(N[C@@H]1CCCN(c2ncnc3[nH]ccc23)C1)[C@H](Nc1cc(F)cc(C(F)(F)F)c1)C1CC1 [Example 121, (R)—N—((R)-1-(7H-pyrrolo[2,3-d]pyrimidin-4-yl)piperidin-3-yl)-2-cyclopropyl-2-(3-fluoro-5-(trifluoromethyl)phenylamino)acetamide] |
| 1000 to 10000 | CC(C)CC[C@@H](Nc1ccccc1)C(=O)N[C@@H]1CCCN(c2ncnc3[nH]ccc23)C1 [Example 122, (R)—N—((R)-1-(7H-pyrrolo[2,3-d]pyrimidin-4-yl)piperidin-3-yl)-5-methyl-2-(phenylamino)hexanamide] |
| 1000 to 10000 | O=C(N[C@@H]1CCCN(c2ncnc3[nH]ccc23)C1)C(CC(F)(F)F)Nc1ccccc1 (stereo partly drawn) [Example 123, (N—((R)-1-(7H-pyrrolo[2,3-d]pyrimidin-4-yl)piperidin-3-yl)-4,4,4-trifluoro-2-(phenylamino)butanamide)] |
| < 100 | CC(C)(C)[C@@H](Nc1cc(F)cc(Cl)c1)C(=O)N[C@@H]1CCCN(c2ncnc3[nH]ccc23)C1 [Example 124, (R)—N—((R)-1-(7H-pyrrolo[2,3-d]pyrimidin-4-yl)piperidin-3-yl)-2-(3-chloro-5-fluorophenylamino)-3,3-dimethylbutanamide] |
| 1000 to 10000 | O=C(N[C@@H]1CCCN(c2ncnc3[nH]ccc23)C1)C1(Nc2ccccc2)CC1 [Example 126, (R)—N-(1-(7H-pyrrolo[2,3-d]pyrimidin-4-yl)piperidin-3-yl)-1-(phenylamino)cyclopropanecarboxamide] |
| 1000 to 10000 | O=C(N[C@@H]1CCCN(c2ncnc3[nH]ccc23)C1)C1(Nc2ccccc2)CCCC1 [Example 127, (R)—N-(1-(7H-pyrrolo[2,3-d]pyrimidin-4-yl)piperidin-3-yl)-1-(phenylamino)cyclopentanecarboxamide] |
| 1000 to 10000 | CC(C)(Nc1ccccc1)C(=O)N[C@@H]1CCCN(c2ncnc3[nH]ccc23)C1 [Example 128, (R)—N-(1-(7H-pyrrolo[2,3-d]pyrimidin-4-yl)piperidin-3-yl)-2-methyl-2-(phenylamino)propanamide] |
| < 100 | CC[C@@H](Nc1cc(F)cc(Cl)c1)C(=O)N[C@@H]1CCCN(c2ncnc3[nH]ncc23)C1 [Example 129, (R)—N—((R)-1-(1H-pyrazolo[3,4-d]pyrimidin-4-yl)piperidin-3-yl)-2-(3-chloro-5-fluorophenylamino)butanamide] |
| < 100 | CC[C@@H](Nc1cc(Cl)cc(Cl)c1)C(=O)N[C@@H]1CCCN(c2ncnc3[nH]ncc23)C1 [Example 130, (R)—N—((R)-1-(1H-pyrazolo[3,4-d]pyrimidin-4-yl)piperidin-3-yl)-2-(3,5-dichlorophenylamino)butanamide] |
| < 100 | CC[C@@H](Nc1cccc(Cl)c1)C(=O)N[C@@H]1CCCN(c2ncnc3[nH]ncc23)C1 [Example 131, (R)—N—((R)-1-(1H-pyrazolo[3,4-d]pyrimidin-4-yl)piperidin-3-yl)-2-(3-chlorophenylamino)butanamide] |
| 100 to 999 | O=C(N[C@@H]1CCCN(c2ncnc3[nH]ccc23)C1)[C@@H](CC1CC1)Nc1cc(Cl)cc(Cl)c1 [Example 132, (R)—N—((R)-1-(7H-pyrrolo[2,3-d]pyrimidin-4-yl)piperidin-3-yl)-3-cyclopropyl-2-(3,5-dichlorophenylamino)propanamide] |
| 1000 to 10000 | N#Cc1c(N)ncnc1N1CCC[C@@H](NC(=O)[C@H](Nc2cc(F)cc(Cl)c2)C2CC2)C1 [Example 134, (R)—N—((R)-1-(6-amino-5-cyanopyrimidin-4-yl)piperidin-3-yl)-2-(3-chloro-5-fluorophenylamino)-2-cyclopropylacetamide] |
| 100 to 999 | O=C1CCc2c(ncnc2N2CCC[C@@H](NC(=O)[C@H](Nc3cc(F)cc(Cl)c3)C3CC3)C2)N1 [Example 135, (R)-2-(3-chloro-5-fluorophenylamino)-2-cyclopropyl-N—((R)-1-(7-oxo-5,6,7,8-tetrahydropyrido[2,3-d]pyrimidin-4-yl)piperidin-3-yl)acetamide] |
| 100 to 999 | Cn1ccc2c(N3CCC[C@@H](NC(=O)[C@H](Nc4cc(F)cc(Cl)c4)C4CC4)C3)ncnc21 [Example 136, (R)-2-(3-chloro-5-fluorophenylamino)-2-cyclopropyl-N—((R)-1-(7-methyl-7H-pyrrolo[2,3-d]pyrimidin-4-yl)piperidin-3-yl)acetamide] |
| 1000 to 10000 | Cn1ncc2c(N3CCC[C@@H](NC(=O)[C@H](Nc4cc(F)cc(Cl)c4)C4CC4)C3)ncnc21 [Example 137, (R)-2-(3-chloro-5-fluorophenylamino)-2-cyclopropyl-N—((R)-1-(1-methyl-1H-pyrazolo[3,4-d]pyrimidin-4-yl)piperidin-3-yl)acetamide] |
| 100 to 999 | O=C(N[C@@H]1CCCN(c2ncnc3[nH]cc(F)c23)C1)[C@H](Nc1cc(F)cc(Cl)c1)C1CC1 [Example 138, (R)-2-(3-chloro-5-fluorophenylamino)-2-cyclopropyl-N—((R)-1-(5-fluoro-7H-pyrrolo[2,3-d]pyrimidin-4-yl)piperidin-3-yl)acetamide] |
| 100 to 999 | Nc1ncnc(N2CCC[C@@H](NC(=O)CNc3cc(Cl)cc(Cl)c3)C2)c1Cl [Example 140, (R)—N-(1-(6-amino-5-chloropyrimidin-4-yl)piperidin-3-yl)-2-(3,5-dichlorophenylamino)acetamide] |
| 1000 to 10000 | CC(=O)Nc1cc(N2CCC[C@@H](NC(=O)CNc3cc(Cl)cc(Cl)c3)C2)ncn1 [Example 141, (R)—N-(1-(6-acetamidopyrimidin-4-yl)piperidin-3-yl)-2-(3,5-dichlorophenylamino)acetamide] |
| 1000 to 10000 | CC(C)Nc1cc(N2CCC[C@@H](NC(=O)CNc3cc(Cl)cc(Cl)c3)C2)ncn1 [Example 142, (R)-2-(3,5-dichlorophenylamino)-N-(1-(6-(isopropylamino)pyrimidin-4-yl)piperidin-3-yl)acetamide] |
| 1000 to 10000 | CCNc1cc(N2CCC[C@@H](NC(=O)CNc3cc(Cl)cc(Cl)c3)C2)ncn1 [Example 143, (R)-2-(3,5-dichlorophenylamino)-N-(1-(6-(ethylamino)pyrimidin-4-yl)piperidin-3-yl)acetamide] |

| IC50 [nM] | SMILES |
| --- | --- |
| 100 to 999 | CNc1cc(N2CCC[C@@H](NC(=O)CNc3cc(Cl)cc(Cl)c3)C2)ncn1 [Example 144, (R)-2-(3,5-dichlorophenylamino)-N-(1-(6-(methylamino)pyrimidin-4-yl)piperidin-3-yl)acetamide] |
| 100 to 999 | C[C@H]1CC[C@@H](NC(=O)[C@H](Nc2cc(F)cc(Cl)c2)C2CC2)CN1c1ncnc2[nH]ncc12 [Example 148, (R)-2-(3-chloro-5-fluorophenylamino)-2-cyclopropyl-N-((3R,6S)-6-methyl-1-(1H-pyrazolo[3,4-d]pyrimidin-4-yl)piperidin-3-yl)acetamide] |
| < 100 | O=C(NC1CN(c2ncnc3[nH]ncc23)CCC1c1ccccc1)[C@H](Nc1cc(F)cc(Cl)c1)C1CC1 (stereo partly drawn) [Example 149, (R)-2-(3-chloro-5-fluorophenylamino)-2-cyclopropyl-N-(4-phenyl-1-(1H-pyrazolo[3,4-d]pyrimidin-4-yl)piperidin-3-yl)acetamide] |
| < 100 | C[C@H]1CCN(c2ncnc3[nH]ncc23)C[C@@H]1NC(=O)[C@H](Nc1cc(Cl)cc(Cl)c1)C1CC1 [Example 152, (R)-2-cyclopropyl-2-(3,5-dichlorophenylamino)-N-((3R,4S)-4-methyl-1-(1H-pyrazolo[3,4-d]pyrimidin-4-yl)piperidin-3-yl)acetamide] |
| < 100 | CCC[C@@H](Nc1cc(Cl)cc(Cl)c1)C(=O)N[C@H]1CN(c2ncnc3[nH]ncc23)CC[C@@H]1C [Example 153] |
| < 100 | CC[C@@H](Nc1cc(F)cc(Cl)c1)C(=O)N[C@H]1CN(c2ncnc3[nH]ncc23)CC[C@@H]1C [Example 154] |
| < 100 | O=C(CNc1ccccc1S(=O)(=O)c1ccccc1)N[C@@H]1CCCN(c2ncnc3[nH]ncc23)C1 [Example 163] |
| < 100 | C[C@@H](O)[C@@H](Nc1cc(Cl)cc(Cl)c1)C(=O)N[C@@H]1CCCN(c2ncnc3[nH]ncc23)C1 [Example 164] |
| < 100 | C[C@H](O)[C@@H](Nc1cc(Cl)cc(Cl)c1)C(=O)N[C@@H]1CCCN(c2ncnc3[nH]ncc23)C1 [Example 165] |
| < 100 | CCC[C@@H](Nc1cc(Cl)cc(Cl)c1)C(=O)N[C@@H]1CCCN(c2ncnc3[nH]ncc23)C1 [Example 166] |
| < 100 | O=C(CNc1ccccc1Sc1ccccc1)N[C@@H]1CCCN(c2ncnc3[nH]ncc23)C1 [Example 167] |
| < 100 | CCC[C@@H](Nc1cc(F)cc(Cl)c1)C(=O)N[C@@H]1CCCN(c2ncnc3[nH]ncc23)C1 [Example 168] |
| < 100 | CCC[C@@H](Nc1cccc(Cl)c1)C(=O)N[C@@H]1CCCN(c2ncnc3[nH]ncc23)C1 [Example 169] |
| < 100 | O=C(CNc1ccccc1S(=O)(=O)N1CCCCC1)NC1CCCCN(c2ncnc3[nH]ncc23)C1 (stereo not drawn) [Example 170] |
| < 100 | C[C@@H](O)[C@@H](Nc1cc(F)cc(Cl)c1)C(=O)N[C@@H]1CCCN(c2ncnc3[nH]ncc23)C1 [Example 171] |
| < 100 | CCCN(CC)S(=O)(=O)c1ccccc1NCC(=O)N[C@@H]1CCCN(c2ncnc3[nH]ncc23)C1 [Example 172] |
| < 100 | O=C(CNc1ccccc1S(=O)(=O)c1ccccc1)N[C@@H]1CCCN(c2ncnc3[nH]ccc23)C1 [Example 173] |
| < 100 | C[C@H](O)[C@@H](Nc1cc(F)cc(Cl)c1)C(=O)N[C@@H]1CCCN(c2ncnc3[nH]ncc23)C1 [Example 174] |
| < 100 | O=C(CNc1ccccc1S(=O)(=O)N1CCC(F)(F)CC1)N[C@@H]1CCCN(c2ncnc3[nH]ncc23)C1 [Example 176] |
| < 100 | CCC[C@@H](Nc1cc(Cl)cc(Cl)c1)C(=O)N[C@@H]1CCCN(c2ncnc3[nH]ccc23)C1 [Example 178] |
| < 100 | CC(C)CN(CC(C)C)S(=O)(=O)c1ccccc1NCC(=O)N[C@@H]1CCCN(c2ncnc3[nH]ccc23)C1 [Example 179] |
